Data set [1] deals with VEEV TC83. Nature of the data set: microbe, parasite or virus in culture. Conditions: Venezuelan equine encephalitis virus, read-out: CPE EC50 (VEEV TC83). Type of data set: cell-based.
The test system of data set [2] is EEEV V105. The data set is described as follows: microbe, parasite or virus in culture. Type of data set: cell-based, eastern equine encephalitis virus. The conditions noted are these: for EC50: Eastern equine encephalitis virus, Vero 76, 48 h, read-out: EEEV V105 CPE EC50.
Data set [3] relates to VEEV INH9813.
In data set [4] the test system is VEEV INH9813. Nature of the data set: microbe, parasite or virus in culture. Conditions: Venezuelan equine encephalitis virus, Vero 76, read-out: CPE EC50, VEEV and EEEV.
Data set [5] can be described thus: Mouse plasma stability. Conditions: CD-1, mouse.

SMILES strings stand for the structures.

By EC50 is commonly meant the midpoint of the concentration-response curve. As to `COc1ccc(N2C(=O)c3cc([N+](=O)[O-])ccc3N=C3C2N(C)CCN3C)cc1` (stereo not shown) [7a], in data set [1], the EC50 came to 41 nM.

Regarding `COc1ccc(N2C(=O)c3cc([N+](=O)[O-])ccc3N=C3C2N(C)CCN3C)cc1F` (stereo not shown) [7b], the 50% effective concentration (EC50) in data set [2] was determined as 27 ± 3 nM.

Regarding `CN1CCN(C)C2C1=Nc1ccc([N+](=O)[O-])cc1C(=O)N2c1ccccc1` (stereo not shown) [7e], in data set [2], the EC50 came to 59 ± 10 nM.

Take `COc1ccc(N2C(=O)c3cc(C#N)ccc3N=C3C2N(C)CCN3C)cc1` (stereo not shown) [7l]: in data set [2], the “loss in antiviral activity for EEEV” value is 75 fold. Moreover, the “loss in antiviral activity for VEEV” value in data set [3] is reported as 100 fold.

What is called half-life is the time needed for the level to fall by half in the phase considered. Low readings indicate fast loss, high ones slow loss. On to `COc1ccc(N2C(=O)c3cc(C#N)cc(-c4ccc(C)nc4)c3N=C3C2N(C)CCN3C)cc1F` (stereo not shown) [7o], for which the EC50 in data set [4] lay in the range of 160 to 240 nM. Besides, in data set [5], the half-life is over 4.82 h.

The values are drawn from article PMC9014857 (ACS Medicinal Chemistry Letters, 2022).
